Measurements taken from patent US11331369B2, “Endoparasitic depsipeptides” (Zoetis Services LLC, priority 2017, dated 2022).

test system: microfilariae of Dirofilaria immitis; assay: Dirofilaria immitis, Microfilaria (DiMF) In vitro Assay; assay type: cell-based; conditions: 72 h, read-out: DiMF Minimum Effective Dose (MED), approximately 72 hours incubation, microfilariae assessed for survival or paralysis

SMILES | minimal effective concentration [µM]
Cc1cn(Cc2ccc(C[C@H]3OC(=O)[C@H](CC(C)C)N(C)C(=O)[C@@H](C)OC(=O)[C@H](CC(C)C)N(C)C(=O)[C@@H](Cc4ccccc4)OC(=O)[C@H](CC(C)C)N(C)C(=O)[C@@H](C)OC(=O)[C@H](CC(C)C)N(C)C3=O)cc2)c(C)n1 [Example 8-5, (3S,6R,9S,12R,15S,18R,21S,24R)-6-benzyl-18-(4-((2,4-dimethyl-1H-imidazol-1-yl)methyl)benzyl)-3,9,15,21-tetraisobutyl-4,10,12,16,22,24-hexamethyl-1,7,13,19-tetraoxa-4,10,16,22-tetraazacyclotetracosan-2,5,8,11,14,17,20,23-octaone] | 0.01 to 0.1
CC(C)C[C@H]1C(=O)O[C@H](Cc2ccc(Cn3ccnc3I)cc2)C(=O)N(C)[C@@H](CC(C)C)C(=O)O[C@H](C)C(=O)N(C)[C@@H](CC(C)C)C(=O)O[C@H](Cc2ccccc2)C(=O)N(C)[C@@H](CC(C)C)C(=O)O[C@H](C)C(=O)N1C [Example 8-10, (3S,6R,9S,12R,15S,18R,21S,24R)-6-benzyl-18-(4-((2-iodo-1H-imidazol-1-yl)methyl)benzyl)-3,9,15,21-tetraisobutyl-4,10,12,16,22,24-hexamethyl-1,7,13,19-tetraoxa-4,10,16,22-tetraazacyclotetracosan-2,5,8,11,14,17,20,23-octaone] | 0.01 to 0.1
Cc1ncn(Cc2ccc(C[C@H]3OC(=O)[C@H](CC(C)C)N(C)C(=O)[C@@H](C)OC(=O)[C@H](CC(C)C)N(C)C(=O)[C@@H](Cc4ccccc4)OC(=O)[C@H](CC(C)C)N(C)C(=O)[C@@H](C)OC(=O)[C@H](CC(C)C)N(C)C3=O)cc2)c1C [Example 8-11, (3S,6R,9S,12R,15S,18R,21S,24R)-6-benzyl-18-(4-((4,5-dimethyl-1H-imidazol-1-yl)methyl)benzyl)-3,9,15,21-tetraisobutyl-4,10,12,16,22,24-hexamethyl-1,7,13,19-tetraoxa-4,10,16,22-tetraazacyclotetracosan-2,5,8,11,14,17,20,23-octaone] | 0.01 to 0.1
CC(C)C[C@H]1C(=O)O[C@H](Cc2ccc(Cn3ccnc3CF)cc2)C(=O)N(C)[C@@H](CC(C)C)C(=O)O[C@H](C)C(=O)N(C)[C@@H](CC(C)C)C(=O)O[C@H](Cc2ccccc2)C(=O)N(C)[C@@H](CC(C)C)C(=O)O[C@H](C)C(=O)N1C [Example 8-14, (3S,6R,9S,12R,15S,18R,21S,24R)-6-benzyl-18-(4-((2-(fluoromethyl)-1H-imidazol-1-yl)methyl)benzyl)-3,9,15,21-tetraisobutyl-4,10,12,16,22,24-hexamethyl-1,7,13,19-tetraoxa-4,10,16,22-tetraazacyclotetracosan-2,5,8,11,14,17,20,23-octaone] | 0.01 to 0.1
CC(C)C[C@H]1C(=O)O[C@H](Cc2ccc(CN3CCSCC3)cc2)C(=O)N(C)[C@@H](CC(C)C)C(=O)O[C@H](C)C(=O)N(C)[C@@H](CC(C)C)C(=O)O[C@H](Cc2ccc(CN3CCSCC3)cc2)C(=O)N(C)[C@@H](CC(C)C)C(=O)O[C@H](C)C(=O)N1C [Example 9-2, (3S,6R,9S,12R,15S,18R,21S,24R)-3,9,15,21-tetraisobutyl-4,6,10,16,18,22-hexamethyl-12,24-bis(4-(thiomorpholinomethyl)benzyl)-1,7,13,19-tetraoxa-4,10,16,22-tetraazacyclotetracosan-2,5,8,11,14,17,20,23-octaone] | 0.01 to 0.1
CC(C)C[C@H]1C(=O)O[C@H](Cc2ccc(CN3CCC(F)(F)CC3)cc2)C(=O)N(C)[C@@H](CC(C)C)C(=O)O[C@H](C)C(=O)N(C)[C@@H](CC(C)C)C(=O)O[C@H](Cc2ccc(CN3CCC(F)(F)CC3)cc2)C(=O)N(C)[C@@H](CC(C)C)C(=O)O[C@H](C)C(=O)N1C [Example 9-4, (3S,6R,9S,12R,15S,18R,21S,24R)-6,18-bis(4-((4,4-difluoropiperidin-1-yl)methyl)benzyl)-3,9,15,21-tetraisobutyl-4,10,12,16,22,24-hexamethyl-1,7,13,19-tetraoxa-4,10,16,22-tetraazacyclotetracosan-2,5,8,11,14,17,20,23-octaone] | 0.01 to 0.1
CC(C)C[C@H]1C(=O)O[C@H](Cc2ccc(N3CCCC(F)(F)C3)cc2)C(=O)N(C)[C@@H](CC(C)C)C(=O)O[C@H](C)C(=O)N(C)[C@@H](CC(C)C)C(=O)O[C@H](Cc2ccc(CN3CCCC(F)(F)C3)cc2)C(=O)N(C)[C@@H](CC(C)C)C(=O)O[C@H](C)C(=O)N1C [Example 9-5, (3S,6R,9S,12R,15S,18R,21S,24R)-6-(4-(3,3-difluoropiperidin-1-yl)benzyl)-18-(4-((3,3-difluoropiperidin-1-yl)methyl)benzyl)-3,9,15,21-tetraisobutyl-4,10,12,16,22,24-hexamethyl-1,7,13,19-tetraoxa-4,10,16,22-tetraazacyclotetracosan-2,5,8,11,14,17,20,23-octaone] | 0.01 to 0.1
CC(C)C[C@H]1C(=O)O[C@H](Cc2ccc(Cn3cnnn3)cc2)C(=O)N(C)[C@@H](CC(C)C)C(=O)O[C@H](C)C(=O)N(C)[C@@H](CC(C)C)C(=O)O[C@H](Cc2ccc(Cn3cnnn3)cc2)C(=O)N(C)[C@@H](CC(C)C)C(=O)O[C@H](C)C(=O)N1C [Example 9-18, (3S,6R,9S,12R,15S,18R,21S,24R)-6,18-bis(4-((1H-tetrazol-1-yl)methyl)benzyl)-3,9,15,21-tetraisobutyl-4,10,12,16,22,24-hexamethyl-1,7,13,19-tetraoxa-4,10,16,22-tetraazacyclotetracosan-2,5,8,11,14,17,20,23-octaone] | 0.01 to 0.1
CC(C)C[C@H]1C(=O)O[C@H](Cc2ccc(Cn3ccc(Br)cc3=O)cc2)C(=O)N(C)[C@@H](CC(C)C)C(=O)O[C@H](C)C(=O)N(C)[C@@H](CC(C)C)C(=O)O[C@H](Cc2ccc(Cn3ccc(Br)cc3=O)cc2)C(=O)N(C)[C@@H](CC(C)C)C(=O)O[C@H](C)C(=O)N1C [Example 9-20, (3S,6R,9S,12R,15S,18R,21S,24R)-6,18-bis(4-((4-bromo-2-oxopyridin-1 (2H)-yl)methyl)benzyl)-3,9,15,21-tetraisobutyl-4,10,12,16,22,24-hexamethyl-1,7,13,19-tetraoxa-4,10,16,22-tetraazacyclotetracosan-2,5,8,11,14,17,20,23-octaone] | 0.01 to 0.1
CC(C)C[C@H]1C(=O)O[C@H](Cc2ccc(Cn3ccc(Cl)cc3=O)cc2)C(=O)N(C)[C@@H](CC(C)C)C(=O)O[C@H](C)C(=O)N(C)[C@@H](CC(C)C)C(=O)O[C@H](Cc2ccc(Cn3ccc(Cl)cc3=O)cc2)C(=O)N(C)[C@@H](CC(C)C)C(=O)O[C@H](C)C(=O)N1C [Example 9-21, (3S,6R,9S,12R,15S,18R,21S,24R)-6,18-bis(4-((4-chloro-2-oxopyridin-1 (2H)-yl)methyl)benzyl)-3,9,15,21-tetraisobutyl-4,10,12,16,22,24-hexamethyl-1,7,13,19-tetraoxa-4,10,16,22-tetraazacyclotetracosan-2,5,8,11,14,17,20,23-octaone] | 0.001 to 0.01
Cc1ccn(Cc2ccc(C[C@H]3OC(=O)[C@H](CC(C)C)N(C)C(=O)[C@@H](C)OC(=O)[C@H](CC(C)C)N(C)C(=O)[C@@H](Cc4ccc(Cn5ccc(C)cc5=O)cc4)OC(=O)[C@H](CC(C)C)N(C)C(=O)[C@@H](C)OC(=O)[C@H](CC(C)C)N(C)C3=O)cc2)c(=O)c1 [Example 9-27, (3S,6R,9S,12R,15S,18R,21S,24R)-3,9,15,21-tetraisobutyl-4,6,10,16,18,22-hexamethyl-12,24-bis(4-((4-methyl-2-oxopyridin-1 (2H)-yl)methyl)benzyl)-1,7,13,19-tetraoxa-4,10,16,22-tetraazacyclotetracosan-2,5,8,11,14,17,20,23-octaone] | 0.01 to 0.1
CC(C)C[C@H]1C(=O)O[C@H](Cc2ccc(Cn3nnc4ccccc43)cc2)C(=O)N(C)[C@@H](CC(C)C)C(=O)O[C@H](C)C(=O)N(C)[C@@H](CC(C)C)C(=O)O[C@H](Cc2ccc(Cn3nnc4ccccc43)cc2)C(=O)N(C)[C@@H](CC(C)C)C(=O)O[C@H](C)C(=O)N1C [Example 9-29, (3S,6R,9S,12R,15S,18R,21S,24R)-6,18-bis(4-((1H-benzo[d][1,2,3]triazol-1-yl)methyl)benzyl)-3,9,15,21-tetraisobutyl-4,10,12,16,22,24-hexamethyl-1,7,13,19-tetraoxa-4,10,16,22-tetraazacyclotetracosan-2,5,8,11,14,17,20,23-octaone] | 0.01 to 0.1
CC(C)C[C@H]1C(=O)O[C@H](Cc2ccc(Cn3cccc3/C(N)=N/O)cc2)C(=O)N(C)[C@@H](CC(C)C)C(=O)O[C@H](C)C(=O)N(C)[C@@H](CC(C)C)C(=O)O[C@H](Cc2ccc(Cn3cccc3C(N)=NO)cc2)C(=O)N(C)[C@@H](CC(C)C)C(=O)O[C@H](C)C(=O)N1C [Example 9-30, N′-hydroxy-1-[[4-[[(2R,5S,8R,11S,14R,17S,20R,23S)-14-[[4-[[2-[(Z)—N′-hydroxycarbamimidoyl]pyrrol-1-yl]methyl]phenyl]methyl]-5,11,17,23-tetraisobutyl-4,8,10,16,20,22-hexamethyl-3,6,9,12,15,18,21,24-octaoxo-1,7,13,19-tetraoxa-4,10,16,22-tetrazacyclotetracos-2-yl]methyl]phenyl]methyl]pyrrole-2-carboxamidine] | 0.001 to 0.01
CC(C)C[C@H]1C(=O)O[C@H](Cc2ccc(Cn3cc(-c4ccccc4)nn3)cc2)C(=O)N(C)[C@@H](CC(C)C)C(=O)O[C@H](C)C(=O)N(C)[C@@H](CC(C)C)C(=O)O[C@H](Cc2ccccc2)C(=O)N(C)[C@@H](CC(C)C)C(=O)O[C@H](C)C(=O)N1C [Example 9-33, (3S,6R,9S,12R,15S,18R,21S,24R)-6-benzyl-3,9,15,21-tetraisobutyl-4,10,12,16,22,24-hexamethyl-18-(4-((4-phenyl-1H-1,2,3-triazol-1-yl)methyl)benzyl)-1,7,13,19-tetraoxa-4,10,16,22-tetraazacyclotetracosan-2,5,8,11,14,17,20,23-octaone] | 0.01 to 0.1
